From patent publication US20140378451A1, “Cannabinoid-2-Receptor Agonists” (ISIS INNOVATION LIMITED, priority 2011, published 2014)
pIC50: −log10 of the molar value.

Key:
hCNR2 (CB2R) = target: T1, hCNR2 (CB2R) (Homo sapiens, UniProt P34972); assay: DiscoveRx cAMP Hunter Express GPCR assay (hCNR2 CHO-K1 cells); type: cell-based; conditions: for pIC50: cAMP Hunter eXpress, hCNR2 CHO-K1 cells, read-out: Assay 2 IC50
T1 construct: host or cells: CHO-K1 (purchased recombinant cell line)
Procedure: (§1) Compounds were evaluated for their CB2R agonist potency in the following assays:
Assay 2—DiscoveRx cAMP Hunter Express GPCR Assay
The cAMP Hunter eXpress GPCR assay kit and cells used are from DiscoveRx Corporation (95-0040E2) using the manufacturer's protocol without the optional IBMX step. […] Briefly, hCNR2 CHO-K1 cells were plated in the provided medium (50 ul per well) in half-area 96-well plates (Corning 3885) and placed in an incubator 37° C. 5% CO2 overnight. Next day, the medium was aspirated and replaced with ‘antibody solution’ (22.5 ul) (provided concentrated, diluted 1 in 3 with ‘assay buffer’ provided). The freshly made compounds (at a ×4 final concentration) or solvent alone (1.2% DMSO) were added to the wells and incubated for 30 minutes in a 37° C. incubator 5% CO2. A mixture of lysis solution and two substrates (provided with the DiscoveRx kit) was added to the wells and incubated in the dark for one hour at room temperature. A detection reagent (provided) was then added to the wells and incubated in the dark for 3 hours at room temperature. The luminescence was then read with a Perkin-Elmer luminometer.

hCB2R = target: T2, hCB2R (Homo sapiens, UniProt P34972); assay: cAMP assay on hCB2R clone 3D8.3 (transfected CHO-K1 cells); type: cell-based; conditions: for pIC50: cAMP, hCNR2 CHO-K1 3D8.3 clone, read-out: Assay 1 IC50
T2 construct: unnamed tag of the plasmid; expressed in transfected cells
Procedure: as §1
Assay 1—cAMP Assay on hCB2R Clone 3D8.3:
Chinese hamster ovary cells (CHO)-K1 were transfected with hCB2R plasmid using Genejuice (Merck). After 48 h the cells were transferred into flasks in the presence of the antibiotic G418 and expanded (with continuous replenishment of the antibiotic). Two single-cell cloning rounds were then performed, followed by verification of the presence of the tag of the plasmid and confirming the receptor was functional in cAMP studies. For the screening of compounds: Briefly, hCNR2 CHO-K1 (3D8.3 clone) cells were plated in Optimem+1% FCS (30000 cells, 100 ul per well) in half-area 96-well plates (Corning 3885) and placed in an incubator 37° C. 5% CO2 overnight. Next day, the medium was aspirated and replaced with ‘antibody solution’ (22.5 ul) (provided concentrated, diluted 1 in 3 with ‘assay buffer’ provided). The freshly made compounds (at a ×4 final concentration) or solvent alone (1.2% DMSO) were added to the wells and incubated for 30 minutes in a 37° C. incubator 5% CO2. A mixture of: Lysis solution (38%), substrates (Emerald-II™ (10%) and Galacton-Star® (2%)) and enzyme donor-labeled cAMP (50%) was added to the wells and incubated in the dark for one hour at room temperature. 30 μl of detection reagent (enzyme acceptor, provided) was then added to the wells and incubated in the dark for 3 hours at room temperature. The luminescence was then read with a Perkin-Elmer luminometer.

T1 sequence (P34972 whole entry): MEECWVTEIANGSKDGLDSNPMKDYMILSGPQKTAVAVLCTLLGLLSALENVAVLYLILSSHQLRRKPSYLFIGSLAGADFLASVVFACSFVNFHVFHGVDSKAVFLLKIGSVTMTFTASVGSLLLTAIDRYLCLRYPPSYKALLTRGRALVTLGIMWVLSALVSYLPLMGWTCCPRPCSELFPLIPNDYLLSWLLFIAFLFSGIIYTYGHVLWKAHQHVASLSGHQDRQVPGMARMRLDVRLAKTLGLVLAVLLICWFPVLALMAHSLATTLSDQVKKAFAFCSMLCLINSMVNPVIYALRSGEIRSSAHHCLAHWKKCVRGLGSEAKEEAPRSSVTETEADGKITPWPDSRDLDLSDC
T2 sequence (P34972 whole entry): as above

Compound	pIC50 (hCNR2 (CB2R))	pIC50 (hCB2R)	Assay 2 decrease at 1 and 3 μM (hCNR2 (CB2R); at 1 and 3 μM)	Assay 1 activity at 3 μM (hCB2R; at 3 μM) [% activity at 3 μM]
COC(=O)CCC(=O)n1c2ccccc2c2nnc(SCc3ccccc3C#N)nc21 [Example 26, methyl 4″-(3-((2′-cyanobenzyl)thio)-5H-[1,2,4]triazino[5,6-b]indol-5-yl)-4″-oxobutanoate]	7.32	7.37	–	–
N#Cc1ccccc1CSc1nnc2c3ccccc3n(C(=O)c3ccno3)c2n1 [Example 24, 2′-(((5-(Isoxazole-5″-carbonyl)-5H-[1,2,4]triazino[5,6-b]indol-3-yl)thio)methyl)benzonitrile]	7.72	7.85	–	–
N#Cc1ccccc1CSc1nnc2c(n1)[nH]c1cccc(Br)c12 [Example 8, 2′-(((9-Bromo-5H-[1,2,4]triazino[5,6-b]indol-3-yl)thio)methyl)benzonitrile]	7.41	6.64	–	–
N#Cc1ccccc1CSc1nnc2c3ccccc3n(C(=O)c3ccc(OC(F)(F)F)cc3)c2n1 [Example 21, 2′-(((5-(4″-(Trifluoromethoxy)benzoyl)-5H-[1,2,4]triazino[5,6-b]indol-3-yl)thio)methyl)benzonitrile]	7.14	6.95	–	–
O=[N+]([O-])c1ccccc1CSc1nnc2c(n1)[nH]c1cccc(Br)c12 [Example 9, 9-Bromo-3-((2′-nitrobenzyl)thio)-5H-[1,2,4]triazino[5,6-b]indole]	7.43	6.55	–	–
CN(C)c1ccc(C(=O)n2c3ccccc3c3nnc(SCc4ccccc4C#N)nc32)cc1 [Example 16]	–	–	20% decrease at 1 and 3 μM	~40
O=[N+]([O-])c1ccc(CSc2nnc3c(n2)[nH]c2ccccc23)c([N+](=O)[O-])c1 [Example 11, 3-((2′,4′-Dinitrobenzyl)thio)-5H-[1,2,4]triazino[5,6-b]indole]	6.24	5.41	–	–

More lines, main results first:

pIC50 (hCNR2 (CB2R))	pIC50 (hCB2R)	Compound	Assay 2 decrease at 1 and 3 μM (hCNR2 (CB2R); at 1 and 3 μM)	Assay 1 activity at 3 μM (hCB2R; at 3 μM) [% activity at 3 μM]
7.12	6.08	O=C(c1ccccc1)n1c2ccccc2c2nnc(SCc3ccccc3[N+](=O)[O-])nc21 [Example 7, (3-((2′-Nitrobenzyl)thio)-5H-[1,2,4]triazino[5,6-b]indol-5-yl)(phenyl)methanone]	–	–
7.57	7.24	N#Cc1ccccc1CSc1nnc2c3ccccc3n(C(=O)c3cccc(C(F)(F)F)c3)c2n1 [Example 19]	–	–
6.70	6.70	O=[N+]([O-])c1ccccc1CSc1nnc2c3ccccc3n(Cc3ccccc3F)c2n1 [Example 13]	–	–
7.28	6.45	N#Cc1ccccc1CSc1nnc2c3ccccc3n(Cc3ccccc3[N+](=O)[O-])c2n1 [Example 10, 2′-(((5-(2″-Nitrobenzyl)-5H-[1,2,4]triazino[5,6-b]indol-3-yl)thio)methyl)benzonitrile]	–	–
6.96	6.20	O=[N+]([O-])c1ccccc1CSc1nnc2c3ccccc3n(Cc3ccc(Cl)cc3)c2n1 [Example 6, 5-(4″-Chlorobenzyl)-3-((2′-nitrobenzyl)thio)-5H-[1,2,4]triazino[5,6-b]indole]	–	–
6.67	7.02	N#Cc1ccccc1CSc1nnc2c3ccccc3n(Cc3ccccc3)c2n1 [Example 3, 2′-(((5-Benzyl-5H-[1,2,4]triazino[5,6-b]indol-3-yl)thio)methyl)benzonitrile]	–	–
6.95	7.42	N#Cc1ccccc1CSc1nnc2c3ccccc3n(C(=O)c3ccccc3)c2n1 [Example 25]	–	–
